Data set [1] has as its system MOLM13 cells. In words: Cytotoxicity against MOLM13 cells. Format: cell-based. To be noted: MOLM13 cells, read-out: IC50. An excerpt: (§1) Through amide coupling using I-ethyl-3-carbodiimide hydrochloride (EDC.HCl), the alkynyl derivatives of 4.16, 4.29 and 4.30 were synthesized. Using these VIP152-derivatives, degraders 4.31, 4.33 and 4.34 were synthesized using click chemistry. Degrader 4.32 was also synthesized using amide coupling conditions with (1-[Bis([…])methylene]-1H-1,2,3-triazolo[4,5-b]pyridinium 3-oxide hexafluorophosphate (HATU) and the carboxylic acid 4.28. Scheme 7 illustrates the synthesis of this initial series. The series was evaluated for cytotoxicity against MOLM13 cells (IC50) and for their CDK9 degradation potency (DC50). The results are provided in Table 3.

Data set [2] addresses T1, CDK9 (Homo sapiens, UniProt P50750+Q96SW2).
T1 construct: endogenous in cells
In words: CDK9 degradation potency (DC50) of VIP152-based degraders. Format: cell-based. The settings on record: VIP152-based series.
Description: as §1

Data set [3] in a line: Chromatographic log D determination (log k′80). The class given is physicochemical. To be noted: chromatographic log D, PLRP-S column, pH 7.72. How it is done: Chromatographic Log D Determination. Test samples were prepared from 10 mM stock solutions in DMSO, to make 122 μM solutions in acetonitrile. Retention times were determined on a Shimadzu High Performance Liquid Chromatography (HPLC) system with Agilent PLRP-S column, 100 Å, 5 um particle size, 50×4.6 mm (part no.: PL1512-1500) with 1 mL/min flow rate. A 65 mM aqueous solution of ammonium acetate was prepared in water and diluted with acetonitrile to give 0.1% ammonium acetate 20:80 acetonitrile solution with pH 7.72. Eluents were detected with UV spectrophotometry at 337 nm. As a standard set, the retention times of β-estradiol, nifedipine, quinoline, phenol and 2-nitrophenol were determined (log k′80) and the dead time was extrapolated based on the reported log k′80 values originally reported by Caron et. al (log k′80*). The average value of the dead time for the standard set was 0.3001 minutes. Therefore, for consistency, 0.3 minutes was used as the dead time for all test samples. Experiments were performed in triplicate with a maximum percent standard deviation of 6.85%.

Data set [4] is described as follows: Kinetic solubility assay. The settings on record: kinetic solubility, PBS pH 7.4; for solubility at 1.5 h: phosphate buffered saline, pH 7.4, aqueous buffer, kinetic from dmso stock, Solubility (μM).
[5] abbreviates: Homo sapiens, MOLM-13, cytotoxicity.

≈ marks a conversion by molar mass, not a printed value. Where two headings read alike, the source gives them in different places.

As usually defined, the IC50 is the point on the concentration scale where inhibition reaches its midpoint. What is called DC50 is the concentration giving 50% degradation. A low value points to degradation at low concentration. Broadly, the solubility is how much of the substance goes into solution per volume. Higher therefore signals much dissolved substance. The Solubility is how much of the substance goes into solution per volume.

T1 sequence (P50750 whole entry): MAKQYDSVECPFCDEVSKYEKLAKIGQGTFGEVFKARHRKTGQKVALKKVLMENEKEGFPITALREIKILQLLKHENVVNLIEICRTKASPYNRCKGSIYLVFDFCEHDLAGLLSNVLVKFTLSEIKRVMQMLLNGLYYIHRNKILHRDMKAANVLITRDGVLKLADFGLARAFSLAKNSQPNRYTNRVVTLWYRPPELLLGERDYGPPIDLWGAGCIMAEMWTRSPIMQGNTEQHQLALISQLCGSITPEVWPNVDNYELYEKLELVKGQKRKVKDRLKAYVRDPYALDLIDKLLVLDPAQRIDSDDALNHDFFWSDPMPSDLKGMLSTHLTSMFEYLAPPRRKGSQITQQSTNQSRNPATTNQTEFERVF
T1 sequence (O60563 whole entry partner): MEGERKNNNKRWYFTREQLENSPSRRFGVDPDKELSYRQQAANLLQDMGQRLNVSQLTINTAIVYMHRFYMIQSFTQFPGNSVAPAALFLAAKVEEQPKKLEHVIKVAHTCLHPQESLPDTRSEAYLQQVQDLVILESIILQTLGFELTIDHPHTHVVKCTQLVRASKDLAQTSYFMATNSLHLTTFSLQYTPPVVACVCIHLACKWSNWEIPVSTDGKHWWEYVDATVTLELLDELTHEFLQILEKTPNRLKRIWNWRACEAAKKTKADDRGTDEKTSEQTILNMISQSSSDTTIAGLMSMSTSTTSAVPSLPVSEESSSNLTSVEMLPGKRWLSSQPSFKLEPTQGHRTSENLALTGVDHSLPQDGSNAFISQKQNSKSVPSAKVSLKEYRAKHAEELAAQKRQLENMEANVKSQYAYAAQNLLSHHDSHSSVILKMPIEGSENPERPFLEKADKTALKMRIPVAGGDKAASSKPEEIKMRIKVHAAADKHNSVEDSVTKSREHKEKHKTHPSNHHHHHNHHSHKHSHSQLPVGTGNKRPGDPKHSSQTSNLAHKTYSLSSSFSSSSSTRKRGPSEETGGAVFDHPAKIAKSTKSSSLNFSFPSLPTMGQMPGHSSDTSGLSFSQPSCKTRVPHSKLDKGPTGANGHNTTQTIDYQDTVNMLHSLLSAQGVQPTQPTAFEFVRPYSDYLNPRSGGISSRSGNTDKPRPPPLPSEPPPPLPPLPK
T1 sequence (Q96SW2 whole entry): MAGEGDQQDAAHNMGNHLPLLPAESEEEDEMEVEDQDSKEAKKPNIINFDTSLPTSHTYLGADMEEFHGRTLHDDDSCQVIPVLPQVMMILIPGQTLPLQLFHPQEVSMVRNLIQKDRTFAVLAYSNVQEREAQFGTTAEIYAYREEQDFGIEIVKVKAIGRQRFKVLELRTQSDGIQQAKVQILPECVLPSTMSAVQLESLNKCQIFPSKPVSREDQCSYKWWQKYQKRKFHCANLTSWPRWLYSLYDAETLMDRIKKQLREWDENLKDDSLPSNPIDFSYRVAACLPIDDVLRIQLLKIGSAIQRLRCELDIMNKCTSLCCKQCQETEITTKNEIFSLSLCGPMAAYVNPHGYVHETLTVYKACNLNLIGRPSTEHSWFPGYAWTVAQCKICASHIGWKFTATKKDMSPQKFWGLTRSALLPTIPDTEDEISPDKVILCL
T1 sequence (Q16531 whole entry partner): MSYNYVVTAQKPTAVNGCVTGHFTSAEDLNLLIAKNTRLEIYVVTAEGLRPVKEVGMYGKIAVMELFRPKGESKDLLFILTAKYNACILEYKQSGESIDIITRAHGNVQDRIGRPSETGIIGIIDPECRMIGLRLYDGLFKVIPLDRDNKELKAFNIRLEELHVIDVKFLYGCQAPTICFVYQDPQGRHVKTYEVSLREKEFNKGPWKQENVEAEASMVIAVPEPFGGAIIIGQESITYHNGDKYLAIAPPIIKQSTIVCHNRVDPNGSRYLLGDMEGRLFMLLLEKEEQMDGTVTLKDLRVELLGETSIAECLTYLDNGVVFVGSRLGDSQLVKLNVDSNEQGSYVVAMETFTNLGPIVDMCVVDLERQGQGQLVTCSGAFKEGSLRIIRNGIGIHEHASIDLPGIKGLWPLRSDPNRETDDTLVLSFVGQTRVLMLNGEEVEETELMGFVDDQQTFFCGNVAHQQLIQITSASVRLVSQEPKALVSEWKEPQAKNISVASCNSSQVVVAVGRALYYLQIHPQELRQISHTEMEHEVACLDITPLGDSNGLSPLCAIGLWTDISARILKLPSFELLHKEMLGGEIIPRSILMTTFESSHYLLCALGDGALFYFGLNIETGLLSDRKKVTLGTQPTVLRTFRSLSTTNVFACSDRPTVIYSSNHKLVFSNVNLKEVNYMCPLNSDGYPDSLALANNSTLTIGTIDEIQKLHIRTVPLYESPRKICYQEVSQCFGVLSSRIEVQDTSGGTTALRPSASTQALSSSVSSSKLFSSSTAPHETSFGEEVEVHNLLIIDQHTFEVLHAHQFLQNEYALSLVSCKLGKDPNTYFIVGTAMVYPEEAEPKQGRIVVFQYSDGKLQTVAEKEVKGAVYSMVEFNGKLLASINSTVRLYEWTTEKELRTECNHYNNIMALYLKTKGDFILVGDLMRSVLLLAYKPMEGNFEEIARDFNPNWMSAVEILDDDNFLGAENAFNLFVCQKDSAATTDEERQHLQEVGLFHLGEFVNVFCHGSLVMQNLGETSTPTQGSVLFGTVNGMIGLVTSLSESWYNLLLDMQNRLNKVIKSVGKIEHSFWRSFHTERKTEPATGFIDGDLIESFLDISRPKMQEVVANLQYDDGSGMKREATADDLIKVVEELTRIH

Consider `COc1cc(F)ccc1-c1cc(Nc2cc(CS(C)(=O)=NC(=O)CN3CCN(Cc4cn(CCCOc5cccc6c5C(=O)N(C5CCC(=O)NC5=O)C6=O)nn4)CC3)ccn2)ncc1F` (centres unmarked) [Compound 4.39, 2-(4-((1-(3-((2-(2,6-dioxopiperidin-3-yl)-1,3-dioxoisoindolin-4-yl)oxy)propyl)-1H-1,2,3-triazol-4-yl)methyl)piperazin-1-yl)-N-(((2-((5-fluoro-4-(4-fluoro-2-methoxyphenyl)pyridin-2-yl)amino)pyridin-4-yl)methyl)(methyl)(oxo)-16-sulfaneylidene)acetamide], for which the half-maximal inhibitory concentration (IC50) in data set [1] (setting [5]) came out at 0.83 µM. Also, the 50% degradation concentration (DC50) in data set [2] was 0.64 µM. Besides, the “logk′80” value in data set [3] worked out at 0.10. Besides, the solubility at 1.5 h in data set [4] is 26.5 µM (≈ 24.5 µg/mL).
Take `COc1cc(F)ccc1-c1cc(Nc2cc(CS(C)(=O)=NC(=O)CN3CCN(Cc4cn(CC(=O)N5CCN(CC#Cc6cccc7c6C(=O)N(C6CCC(=O)NC6=O)C7=O)CC5)nn4)CC3)ccn2)ncc1F` (centres unmarked) [Compound 4.51, 2-(4-((1-(2-(4-(3-(2-(2,6-dioxopiperidin-3-yl)-1,3-dioxoisoindolin-4-yl)prop-2-yn-1-yl)piperazin-1-yl)-2-oxoethyl)-1H-1,2,3-triazol-4-yl)methyl)piperazin-1-yl)-N-(((2-((5-fluoro-4-(4-fluoro-2-methoxyphenyl)pyridin-2-yl)amino)pyridin-4-yl)methyl)(methyl)(oxo)-16-sulfaneylidene)acetamide]: in data set [1] (cytotoxicity), the IC50 came out at 1.54 µM. For the same compound, in data set [2], it took 0.37 µM to reach half-maximal degradation (DC50). In addition, the “logk′80” value in data set [3] is recorded as 0.09. Also, the “Solubility” value in data set [4] is 14.8 µM (≈ 15.3 µg/mL).
The corresponding values for `COc1cc(F)ccc1-c1cc(Nc2cc(CS(C)(=O)=NC(=O)CN3CCC(c4cn(C5CN(C(=O)CNc6cccc7c6C(=O)N(C6CCC(=O)NC6=O)C7=O)C5)nn4)CC3)ccn2)ncc1F` (centres unmarked) [Compound 4.59, 2-(4-(1-(1-((2-(2,6-dioxopiperidin-3-yl)-1,3-dioxoisoindolin-4-yl)glycyl)azetidin-3-yl)-1H-1,2,3-triazol-4-yl)piperidin-1-yl)-N-(((2-((5-fluoro-4-(4-fluoro-2-methoxyphenyl)pyridin-2-yl)amino)pyridin-4-yl)methyl)(methyl)(oxo)-16-sulfaneylidene)acetamide] are 0.21 µM, 0.11 µM, 0.09 and 5.0 µM (≈ 4.83 µg/mL).
The corresponding values for `COc1cc(F)ccc1-c1cc(Nc2cc(CS(C)(=O)=NC(=O)CN3CCC(c4cn(C5CN(c6cccc7c6C(=O)N(C6CCC(=O)NC6=O)C7=O)C5)nn4)CC3)ccn2)ncc1F` (centres unmarked) [Compound 4.60, 2-(4-(1-(1-(2-(2,6-dioxopiperidin-3-yl)-1,3-dioxoisoindolin-4-yl)azetidin-3-yl)-1H-1,2,3-triazol-4-yl)piperidin-1-yl)-N-(((2-((5-fluoro-4-(4-fluoro-2-methoxyphenyl)pyridin-2-yl)amino)pyridin-4-yl)methyl)(methyl)(oxo)-16-sulfaneylidene)acetamide] are 1.91 µM, 1.66 µM, 0.16 and 4.1 µM (≈ 3.72 µg/mL).
The corresponding values for `COc1cc(F)ccc1-c1cc(Nc2cc(CS(C)(=O)=NC(=O)C3CCCN(Cc4cn(CC(=O)N5CCN(CC#Cc6cccc7c6C(=O)N(C6CCC(=O)NC6=O)C7=O)CC5)nn4)C3)ccn2)ncc1F` (centres unmarked) [Compound 4.64, 1-((1-(2-(4-(3-(2-(2,6-dioxopiperidin-3-yl)-1,3-dioxoisoindolin-4-yl)prop-2-yl-1-yl)piperazin-1-yl)-2-oxoethyl)-1H-1,2,3-triazol-4-yl)methyl)-N-(((2-((5-fluoro-4-(4-fluoro-2-methoxyphenyl)pyridin-2-yl)amino)pyridin-4-yl)methyl)(methyl)(oxo)-16-sulfaneylidene)piperidine-3-carboxamide] are 0.85 µM, 0.78 µM, 0.14 and 33.0 µM (≈ 33.6 µg/mL).
Turning to `COc1cc(F)ccc1-c1cc(Nc2cc(CS(C)(=O)=NC(=O)C3CCCN(Cc4cn(CC(=O)N5CCN(CCCc6cccc7c6C(=O)N(C6CCC(=O)NC6=O)C7=O)CC5)nn4)C3)ccn2)ncc1F` (centres unmarked) [Compound 4.73, 1-({1-[2-(4-{3-[2-(2,6-dioxopiperidin-3-yl)-1,3-dioxo-2,3-dihydro-1H-isoindol-4-yl]propyl}piperazin-1-yl)-2-oxoethyl]-1H-1,2,3-triazol-4-yl}methyl)-N-{[1 (2-{[5-fluoro-4-(4-fluoro-2-methoxyphenyl)pyridin-2-yl]amino}pyridin-4-yl)methyl](methyl)oxo-λ^6-sulfanylidene}piperidine-3-carboxamide], the concentration for half-maximal inhibition (IC50) in data set [1] (setting [5]) was found to be 0.7 µM. The compound further came in with a DC50 in data set [2] of 2.63 µM. Besides, the “logk′80” value in data set [3] was found to be 0.13. The concentration in solution in data set [4] (solubility at 1.5 h) was 3.5 µM (≈ 3.57 µg/mL).
The corresponding values for `COc1cc(F)ccc1-c1cc(Nc2cc(CS(C)(=O)=NC(=O)C3CCCN(Cc4cn(CC(=O)N5CCC(C#Cc6cccc7c6C(=O)N(C6CCC(=O)NC6=O)C7=O)CC5)nn4)C3)ccn2)ncc1F` (centres unmarked) [Compound 4.75, 1-({1-[2-(4-{2-[2-(2,6-dioxopiperidin-3-yl)-1,3-dioxo-2,3-dihydro-1H-isoindol-4-yl]ethynyl}piperidin-1-yl)-2-oxoethyl]-1H-1,2,3-triazol-4-yl}methyl)-N-{[1 (2-{[5-fluoro-4-(4-fluoro-2-methoxyphenyl)pyridin-2-yl]amino}pyridin-4-yl)methyl](methyl)oxo-λ^6-sulfanylidene}piperidine-3-carboxamide] are 1.48 µM, 1.62 µM, 0.18 and 4.8 µM (≈ 4.81 µg/mL).
As for `COc1cc(F)ccc1-c1cc(Nc2cc(CS(C)(=O)=NC(=O)CN3CCC(c4cn(CC5CCN(c6cccc7c6C(=O)N(C6CCC(=O)NC6=O)C7=O)CC5)nn4)CC3)ccn2)ncc1F` (centres unmarked) [Compound 4.76, 2-{[4-[1-({1-[2-(2,6-dioxopiperidin-3-yl)-1,3-dioxo-2,3-dihydro-1H-isoindol-4-yl]piperidin-4-yl}methyl)-1H-1,2,3-triazol-4-yl]piperidin-1-yl}-N-{[2-{[5-fluoro-4-(4-fluoro-2-methoxyphenyl)pyridin-2-yl]amino}pyridin-4-yl)methyl](methyl)oxoλ^6-sulfanylidene}acetamide], in data set [1] (cytotoxicity), the IC50 came out at 0.3 µM. The same compound yielded a DC50 in data set [2] of 0.24 µM. Further, in data set [3], the “logk′80” value worked out at 0.19. For the same compound, the “Solubility” value in data set [4] was determined as 4.7 µM (≈ 4.47 µg/mL).
Consider `COc1cc(F)ccc1-c1cc(Nc2cc(CS(C)(=O)=NC(=O)CN3CCC(COc4cccc5c4C(=O)N(C4CCC(=O)NC4=O)C5=O)CC3)ccn2)ncc1F` (centres unmarked) [Compound 4.79, 2-[4-({[2-(2,6-dioxopiperidin-3-yl)-1,3-dioxo-2,3-dihydro-1H-isoindol-4-yl]oxy}methyl)piperidin-1-yl]-N-{[(2-{[5˜fluoro-4-(4-fluoro-2-methoxyphenyl)pyridin-2-yl]amino}pyridin-4-yl)methyl](methyl)oxo-26-sulfanylidene}acetamide], for which the 50% inhibitory concentration (IC50) in data set [1] (setting [5]) was found to be 0.19 µM. Moreover, the half-maximal degradation concentration (DC50) in data set [2] was found to be 0.36 µM. In data set [3], the “logk′80” value is reported as 0.20. Moreover, the solubility at 1.5 h in data set [4] turned out to be 3.1 µM (≈ 2.53 µg/mL).
For `COc1cc(F)ccc1-c1cc(Nc2cc(CS(C)(=O)=NC(=O)CCc3cn(CC4CCN(C5CN(C(=O)CNc6cccc7c6C(=O)N(C6CCC(=O)NC6=O)C7=O)C5)CC4)nn3)ccn2)ncc1F` (centres unmarked) [Compound 4.89, 3-(1-((1-(1-((2-(2,6-dioxopiperidin-3-yl)-1,3-dioxoisoindolin-4-yl)glycyl)azetidin-3-yl)piperidin-4-yl)methyl)-1H-1,2,3-triazol-4-yl)-N-(((2-((5-fluoro-4-(4-fluoro-2-methoxyphenyl)pyridin-2-yl)amino)pyridin-4-yl)methyl)(methyl) (oxo)-26-sulfaneylidene) propanamide], in that order: 0.17 µM, 0.08 µM, 0.09 and 1.8 µM (≈ 1.79 µg/mL).
The corresponding values for `COc1cc(F)ccc1-c1cc(Nc2cc(CS(C)(=O)=NC(=O)CCC(=O)N3CC(N4CCC(Cn5cc(CNC(=O)CNc6cccc7c6C(=O)N(C6CCC(=O)NC6=O)C7=O)nn5)CC4)C3)ccn2)ncc1F` (centres unmarked) [Compound 4.90, 4-{3-[4-({4-[(2˜ {[2˜ (2,6-dioxopiperidin-3-yl)-1,3-dioxo-2,3-dihydro-1H-isoindol-4-yl]amino}acetamido)methyl]-1H-1,2,3-triazol-1-yl}methyl)piperidin-1-yl]azetidin-1-yl}-N-{[(2-{[5-fluoro-4-(4-fluoro-2-methoxyphenyl)pyridin-2-yl]amino}pyridin-4-yl)methyl](methyl)oxo-λ^6-sulfanylidene}-4-oxobutanamide] are 1.38 µM, 0.9 µM, 0.07 and 8.3 µM (≈ 8.72 µg/mL).
